The source of these data is patent US11332463B2, “Spiropiperidine allosteric modulators of nicotinic acetylcholine receptors” (Merck Sharp & Dohme Corp., priority 2018, dated 2022).

This experiment addresses T1, human α7 nicotinic acetylcholine receptor (HEK cell line stably expressing human RIC-3 and human α7) (Homo sapiens, UniProt P36544).
T1 construct: host or cells: HEK cell line (PrecisION hnAChR α7/RIC-3)
The experiment in a line: Automated patch-clamp electrophysiology functional assay (Assay A), IonFlux HT, whole-cell population patch. Type of experiment: cell-based. On the procedure: The α7 nAChR positive allosteric modulator (PAM) activity of the present compounds may be tested using assays known in the art. […] The assay was performed using the IonFlux HT in a whole-cell, population patch configuration. See Golden et al. Assay Drug Dev. Technol. […] The compounds were assessed for their ability to modulate the function of the human 7 nAChR stably expressed in a HEK cell line both in the presence, and in the absence of the natural 7 agonist acetylcholine. By performing a series of such measurements at different concentrations, the effective concentration of the 7 nAChR PAMs (EC50) was determined. See Spencer et al. Assay Drug Dev. Technol.
Direct activation of α7 (agonism), and potentiation of acetylcholine-evoked 7 currents was determined as follows:
Automated patch-clamp electrophysiology was performed using the IonFlux HT (Fluxion Biosciences Inc., San Francisco, Calif.) in the whole-cell, population patch configuration. Test compounds were assessed for their ability to modulate the function of the α7 nicotinic acetylcholine receptor both in the presence, and in the absence of the natural α7 agonist acetylcholine. […] Immediately prior to assay, cells were detached by first aspirating growth media, rinsing with Dulbecco's phosphate buffered saline, and then adding 10 mL of Accutase (Innovative Cell Technologies, San Diego, Calif.) to the flask and then incubating at 37° C. for 5 minutes. Detached cells were then recovered by the addition of 40 mL of CHO-serum-free media supplemented with 25 mM HEPES, and rocked gently in a 50 mL conical tube for 20 minutes prior to patch-clamp assay. After recovery, cells were pelleted by centrifugation at 1,000 RPM for 1 minute in a compact bench top centrifuge; recovery media was aspirated and cells were resuspended in external recording solution (150 mM NaCl, 5 mM KCl, 2 mM CaCl2), 1 mM MgCl2, 10 mM HEPES, 12 mM dextrose) to a density of 5.0×10^6 cells/mL. The cell suspension was added to the cell inlet wells on an IonFlux HT population patch plate which had previously been rinsed and primed with deionized H2O. Test compounds were serially diluted in DMSO and then resuspended to the final test concentration in external recording solution, with, or without 40 μM acetylcholine added to the external recording solution; test compounds were then transferred to the IonFlux HT population patch plate. Internal recording solution (110 mM TrisPO4, 28 mM TrisBase, 0.1 mM CaCl2, 2 mM MgCl2, 11 mM EGTA, 4 mM MgATP) was added to the internal recording solution inlet wells on the IonFlux HT patch plate previously loaded with cells and test compounds, and the plate loaded into the IonFlux HT instrument. A protocol was executed on the IonFlux HT to trap the cells, break into the cells, and establish the whole-cell recording configuration; cells were voltage-clamped at a holding potential of −60 mV for the duration of the experiment, all experiments were conducted at room temperature, and the IonFlux HT injection pressure was 8 psi for solution applications. Upon establishing the whole-cell configuration, external recording solution was perfused into the recording chambers for 120 seconds and then 40 μM acetylcholine was applied for 1 second and immediately washed off with external recording solution for 60 seconds. The 40 μM acetylcholine-evoked α7 current served as the current response to which subsequent test compound effects, in the presence, or in the absence of 40 μM acetylcholine would be quantified relative to. Next, test compounds were evaluated at multiple concentrations for their ability to induce, or modulate 7 current responses; three concentrations of test compound were evaluated in ascending dose fashion per recording.
Background: The patch-clamp technique gives a direct electrical read-out from membranes.

Setting [1] is: HEK cells expressing human α7/RIC-3, test compound with or without 40 μM acetylcholine, holding potential −60 mV, room temperature, read-out: α7 nAChR Potency.
[2] abbreviates: automated patch-clamp electrophysiology functional assay (Assay A), read-out: α7 nAChR EC50.

Structures are written as SMILES. Where two headings read alike, the source gives them in different places.

T1 sequence (P36544 23-502): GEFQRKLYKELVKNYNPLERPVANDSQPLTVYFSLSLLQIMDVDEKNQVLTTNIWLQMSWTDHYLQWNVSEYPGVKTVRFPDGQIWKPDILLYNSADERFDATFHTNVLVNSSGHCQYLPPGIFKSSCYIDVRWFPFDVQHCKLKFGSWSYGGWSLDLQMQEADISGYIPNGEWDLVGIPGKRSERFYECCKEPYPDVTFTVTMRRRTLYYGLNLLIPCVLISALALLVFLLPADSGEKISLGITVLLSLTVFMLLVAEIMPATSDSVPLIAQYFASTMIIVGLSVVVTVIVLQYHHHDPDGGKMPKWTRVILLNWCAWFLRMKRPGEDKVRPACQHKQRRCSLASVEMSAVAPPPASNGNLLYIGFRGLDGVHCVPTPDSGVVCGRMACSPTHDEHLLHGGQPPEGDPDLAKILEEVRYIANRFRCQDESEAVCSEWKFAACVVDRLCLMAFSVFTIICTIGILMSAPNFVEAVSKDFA

In the case of `NS(=O)(=O)N1CCC2(CC1)C[C@H]2c1noc(Cc2c(F)cccc2C(F)(F)F)n1` [Example E4], the EC50 was 5000 to 50000 nM under setting [1] and 7200 nM under setting [2].
In the same order, the values of `Cc1ccc(C)c(-c2nc(C3C(F)(F)C34C3CCC4CN(S(N)(=O)=O)C3)no2)c1` (single isomer, unassigned) [Example K1] are less than 100 nM and 87 nM.
Take `Cc1cnn(CC(F)(F)F)c1-c1nc([C@@H]2CC23CCN(S(N)(=O)=O)CC3)no1` [Example 8, (1R)-1-{5-[4-Methyl-1-(2,2,2-trifluoroethyl)-1H-pyrazol-5-yl]-1,2,4-oxadiazol-3-yl}-6-azaspiro[2.5]octane-6-sulfonamide]: the EC50 is, setting by setting: under setting [1], 100 to 500 nM; under setting [2], 230 nM.
In the same order, the values of `NS(=O)(=O)N1CCC2(CC1)C(c1nc(-c3ccnn3C3CC3)no1)C2(F)F` (stereo not shown) [Example C14] are 100 to 500 nM and 150 nM.
Regarding `CC(c1nc([C@@H]2CC23CCN(S(N)(=O)=O)CC3)no1)c1ccccc1Cl` (mixture of isomers) [Example E8], the EC50 runs as follows: under setting [1], 500 to 5000 nM; under setting [2], 3900 nM.
In the same order, the values of `Cc1ccc(C)c(-c2nc([C@@H]3CC34CCN(S(N)(=O)=O)CC4)no2)n1` [Example E16] are 500 to 5000 nM and 1300 nM.
Take `NS(=O)(=O)N1CCC2(CC1)C[C@H]2c1nnc(-c2cc(F)ccc2F)s1` [Example F4]: the EC50 is, setting by setting: under setting [1], 500 to 5000 nM; under setting [2], 1100 nM.
In the same order, the values of `NS(=O)(=O)N1CCC2(CC1)C[C@H]2c1noc(-c2conc2C2CC2)n1` [Example E26] are 500 to 5000 nM and 570 nM.
Take `NS(=O)(=O)N1CCC2(CC1)[C@H](c1noc(-c3ccnc(OC4CC4)c3)n1)C2(F)F` [Example E33]: the EC50 is, setting by setting: under setting [1], 100 to 500 nM; under setting [2], 470 nM.
Taken in the same sequence, the figures for `CC(C)(O)c1ccc(-c2nc([C@@H]3CC34CCN(S(N)(=O)=O)CC4)no2)cc1` [Example D23] were 500 to 5000 nM and 1400 nM.
For the compound `NS(=O)(=O)N1CCC2(CC1)CC2c1nc(-c2ccnc(N3CCCC3)c2)no1` (racemic) [Example C2], the EC50 under setting [1] lay in the range of 500 to 5000 nM.
`NS(=O)(=O)N1CCC2(CC1)[C@H](c1nc(-c3ccc(F)cc3C(F)(F)F)co1)C2(F)F` [Example G10]: the EC50 is less than 100 nM under setting [1] and 28 nM under setting [2].
For `NS(=O)(=O)N1CCC2(CC1)[C@H](c1coc(-c3ccnc(OC(F)F)c3)n1)C2(F)F` [Example 35, (2R)-2-{2-[2-(Difluoromethoxy)pyridin-4-yl]-1,3-oxazol-4-yl}-1,1-difluoro-6-azaspiro[2.5]octane-6-sulfonamide], the EC50 is 100 to 500 nM under setting [1] and 150 nM under setting [2].
Taken in the same sequence, the figures for `Cc1ccccc1-c1nnc([C@@H]2C(F)(F)C23CCN(S(N)(=O)=O)CC3)s1` [Example F14] were 100 to 500 nM and 290 nM.
Taken in the same sequence, the figures for `NS(=O)(=O)N1CCC2(CC1)C[C@H]2c1noc(-c2cnn(CC(F)(F)F)c2)n1` [Example E22] were 500 to 5000 nM and 3000 nM.
With `CC(C)(C)n1ncc(-c2nc([C@@H]3C(F)(F)C34CCN(S(N)(=O)=O)CC4)no2)c1C(F)(F)F` [Example E39], the EC50 under setting [1] was in the range of 100 to 500 nM and the EC50 under setting [2] turned out to be 150 nM.
In the same order, the values of `NS(=O)(=O)N1CCC2(CC1)[C@@H](c1nc(-c3ccc(F)cc3C(F)(F)F)no1)C2(F)F` [Example H2] are 500 to 5000 nM and 2900 nM.
Taken in the same sequence, the figures for `NS(=O)(=O)N1CCC2(CC1)C[C@H]2c1noc(Cc2ccc(F)cc2C(F)(F)F)n1` [Example E12] were 500 to 5000 nM and 3700 nM.
As to `COc1ccc(Cl)cc1-c1noc(C2CC23CCN(S(=O)(=O)c2cccc4nonc24)CC3)n1` (racemic) [Example B6], under setting [1], the EC50 is 500 to 5000 nM.
On the same count and under the same terms, in the case of `NS(=O)(=O)N1CCC2(CC1)C[C@H]2c1noc(Cc2cc(F)ccc2C(F)(F)F)n1` [Example E9] it was 500 to 5000 nM.
